Test results: patent publication US20240307335A1, “IRG Blockade to Armor CAR T Cells Against Myeloid Dysfunction” (ROSWELL PARK CANCER INSTITUTE CORPORATION, priority 2023, published 2024)

What was measured:
[1] = test system: CAR T cells cocultured with Eμ-myc cells with or without macrophages (imMac); experiment: Expansion assay of mCherry+ CAR T cells (IncuCyte live cell analysis) in cocultures; format: cell-based, mouse; conditions: for CAR T cell expansion: CAR T cells cocultured with Eμ-myc cells without macrophages, agent present; for CAR T cell expansion / CAR T cell expansion in cocultures with imMac: over 48 h
Protocol: Macrophage development and polarization: BMDMs were generated from bone marrow cells harvested from femurs and tibias of WT or iNOS^−/− mice. […] On day 3, 10 ml of fresh medium with 20 ng/ml M-CSF was added. On day 5, the culture medium was entirely discarded and replaced by 15 ml of fresh medium with 20 ng/ml M-CSF. On day 6, BMDMs were activated for 24 h with 20 ng/ml of IL-4 and IL-10 (Peprotech) to develop imMac or cultured in media only to use as unMac. M-CSF (20 ng/ml) was added during activation with cytokines. On day 7, adherent cells were harvested by gentle scraping and used for in vitro experiments.
Expansion assay: The expansion of mCherry^+ CAR T cells was determined by an IncuCyte S3 live cell analysis system (Essen Bioscience). 2×10^4 Eμ-myc cells and 2×10^4 CAR T cells were cocultured in the absence or presence of 0.5×10^4 macrophages (CAR T:Eμ-myc cell:Macrophage=1:1:0.25, unless otherwise indicated in the figures) in a 96-well black-walled clear bottom plate in 120 μl of media. Cell images were captured at 4× magnification. The expansion index was calculated by dividing the total integrated red intensity (RCU×m^2/mm^2) at each time point by the first time point.
Immunoregulatory actions of macrophages on CAR T cells: To explore how M2-like macrophages may impact the cellular function of CAR T cells, the study employed a syngeneic coculture system (FIG. 3A). […] The BMDMs were either unpolarized (unMac) or induced to differentiate into M2-like macrophages by culturing with type 2 cytokines IL-4 and IL-10. […] The study next explored the impact of imMac on CAR T cell effector function. To exclude the direct contribution of macrophage effector activities in these functional assays, CAR T cells, Eμ-myc cells, and macrophages were first cocultured for 48 hours (FIG. 3G). Next, CAR T cells isolated from the cocultures were evaluated for their effector function against fresh Eμ-myc cells.

[2] = test system: arginine metabolism by imMac; experiment: Global metabolomics (LC-MS) of coculture supernatants; format: cell-based, mouse; conditions: L-NIL (50 PM)
Protocol: Metabolomics and ^13C6-labeled glucose tracing analyses: For global metabolomics analysis of cell-cultured medium, the cell-free medium was obtained by performing rapid centrifugation (17,000×g, 10 sec, room temperature) to collect the supernatant. The metabolites present in 20 μl of the cell-cultured medium were then extracted using 80 μl of ice-cold MeOH. Following a 30 min incubation on ice and subsequent centrifugation (17,000×g, 20 min, 4° C.), the supernatant was subjected to LC-HRMS analysis.
LC-HRMS analysis was performed on a Vanquish UPLC coupled with a Q-Exactive HF mass spectrometer, employing the same conditions as the previously established methods 76. A ZIC-pHILIC LC column (4.6 mm inner diameter×150 mm length, […], MilliporeSigma, Burlington, MA) with a ZIC-pHILIC guard column (4.6 mm inner diameter×20 mm length, MilliporeSigma, Burlington, MA) was used for chromatographic separation at a column temperature of 30° C. The mobile phases included 10 mM (NH4)2CO3 and 0.05% NH40H in H2O for mobile phase A, and […]. The LC gradient conditions were as follows: 0 to 13 min: a decreasing of 80% to 20% of mobile phase B, 13 to 15 min: 20% of mobile phase B. The ionization was set to negative mode, with the MS scan range set to 60 to 1000 m/z. The mass resolution was 70,000, and the AGC target was 1×106. The sample loading volume was 5 μl. The unlabeled or ^13C-labeled metabolite peaks were extracted using EL-Maven with a metabolite standard-based in-house library. For global metabolomic profiling, peak areas of metabolites were normalized by the median value of the total for identified metabolite peak areas in each sample. For the ^13C-labeled metabolite peaks, the natural isotope peak area was corrected using IsoCor (Version 2.2).

[3] = test system: CAR T cells cocultured with fresh Eμ-myc cells; experiment: Cytokine secretion assay (Ella automated ELISA) with CAR T cells isolated from initial coculture; format: cell-based, mouse; conditions: for secretion of effector cytokine IFN-γ by CAR T cells / secretion of effector cytokine TNF-α by CAR T cells: CAR T cells isolated after 48 h coculture with Eμ-myc cells with NCX-4016 (100 PM) or PNT (50 μM), supernatants at 24 h
Protocol: (§1) CAR T cell isolation from initial coculture for subsequent downstream assays: 1×10^6 CAR T cells and 1×10^6 Eμ-myc-GFP-FFL cells were cocultured in the absence or presence of 0.25×10^6 macrophages in a 6-well plate in 6 ml of media for 48 h. After initial coculture, cells were harvested, and T cells were isolated using Mouse T Cell Isolation Kit ([…] Technologies). […] Percentage of CAR-expressing T cells was determined with flow cytometry and were subsequently used for downstream assays.
Cytokine secretion assay: 2×10^4 Eμ-myc cells were cocultured with 2×10^4 CAR T cells in a 96-well plate in a total volume of 100 μl of media. Supernatants were collected and analyzed for IFN-γ and TNF-α secretion using Ella automated immunoassay system (Proteinsimple Bio-techne) according to manufacturer's instructions.

Eμ-myc B cell tumors = experiment: Survival of Eμ-myc tumor-bearing mice treated with CAR T cells and L-NIL; format: in vivo, mouse; conditions: combination of 1928z CAR T cells and L-NIL (i.p. once per day, 20 mg/kg) compared to 1928z CAR T cells alone; Eμ-myc tumors in peritoneal cavity
Protocol: Animal experiment: Six- to 10-week-old Rag1^+/+ mice of both sexes were intraperitoneally (i.p.) injected with 3×10^6 Eμ-myc-GFP-FFL cells to generate tumors localized in peritoneal cavity. Tumor engraftment was verified by bioluminescence imaging one day before CAR T cell transfer. Mice were randomized to different treatment groups without differences in pre-treatment tumor load. Seven days after tumor cell inoculation, mice were injected i.p. with 5×10^6 CAR T cells in 300 μl PBS. For survival experiments, L-NIL or PBS was administered i.p. once per day at 20 mg/kg body weight starting on the same day of tumor cell injection. […] Bioluminescence imaging was performed by IVIS Lumina III In Vivo Imaging System (PerkinElmer) with Living Image software (PerkinElmer).

iNOS = experiment: Griess assay of NO levels in coculture supernatants; format: cell-based, mouse; conditions: L-NIL 50 μM at 48 h, anti-IFN-γ 10 μg/mL at 44 h
Protocol: Griess assay: 2×10^4 Eμ-myc cells and 2×10^4 CAR T cells were cocultured in the presence or absence of 0.5×10^4 macrophages in a 96-well plate in 120 μl of media. Coculture supernatants were harvested, and nitric oxide levels were measured using Griess reagent system (Promega) according to manufacturer's instructions. Absorbance was read at 560 nm using microplate reader (GloMax, Promega), and NO2 concentrations were determined by standard curve. Standard curve was prepared with diluting 0.1M sodium nitrite standard (provided in the kit) with the culture media used for experiments.

Eμ-myc cells = experiment: Luciferase-based killing assay with CAR T cells isolated from initial coculture; format: cell-based, mouse; conditions: lysis at 24 h; for lysis of Eμ-myc cells by CAR T cells (ability to kill tumor cells): CAR T cells isolated after 48 h initial coculture with Eμ-myc cells with NCX-4016 (100 μM) or PNT (50 μM), no macrophages
Protocol: as §1
Luciferase-based killing assay: 2×10^4 Eμ-ALL-GFP-FFL cells were cocultured with CAR T cells at different effector-to-target ratios in a 96-well white-walled plate in 100 μl of media. Following incubation, 100 μl luciferase substrate reagent (ONE-Glo Luciferase assay system, Promega) was added to each well. Target cells alone were plated at the same cell density to determine maximum luciferase signals. Emitted luminescence was detected in the microplate reader (GloMax, Promega). Percent lysis was determined as (1−sample signal/maximum signal)×100.

CAR T cells [4] = experiment: Seahorse assay (ECAR, OCR) on CAR T cells from cocultures; format: cell-based, mouse; conditions: L-NIL 50 μM; coculture 48 h
Protocol: (§2) CAR T cell isolation from initial coculture for subsequent downstream assays: 1×10^6 CAR T cells and 1×10^6 Eμ-myc-GFP-FFL cells were cocultured in the absence or presence of 0.25×10^6 macrophages in a 6-well plate in 6 ml of media for 48 h. After initial coculture, cells were harvested, and T cells were isolated using Mouse T Cell Isolation Kit (STEMCELL Technologies). T cell purity was 100% as tested by flow cytometry. Percentage of CAR-expressing T cells was determined with flow cytometry and were subsequently used for downstream assays.
Seahorse assay: ECAR and OCR were measured using a Seahorse Extracellular Flux Analyzer (Agilent Technologies). XF96 microplates were coated with CellTak a day before analyses. To assay glycolytic function, T cells were resuspended in glucose-free XF medium supplied with 2 mM L-glutamine and 1 mM sodium pyruvate and seeded at 2×10^5 cells in 180 μl per well. Following incubation in a CO2-free incubator for 60 min at 37° C. for pH stabilization, ECAR was measured in response to 10 mM glucose, 1 μM oligomycin, and 50 mM 2-deoxyglucose. […] Following incubation in a CO2-free incubator for 60 min at 37° C. for pH stabilization, OCR was measured in response to 1 μM oligomycin, 1 μM FCCP, and 0.5 μM rotenone and antimycin.

CAR T cells [5] = experiment: Global metabolomics on CAR T cells from cocultures; format: cell-based, mouse; conditions: L-NIL (50 PM); coculture 48 h
Protocol: as §2
Global metabolomic profiling and 13C6-labeled glucose tracing of CAR T cells, 1×10^6 T cells were resuspended in either RPMI-1640 medium (RPMI+10% heat-inactivated dialyzed FBS) or ^13C6-glucose substituted RPMI-1640 medium (glucose-free RPMI+10% heat-inactivated dialyzed FBS+11.1 mM ^13C6-glucose). After 4 h incubation, cells were collected, rapidly centrifuged (17,000×g, 10 sec, room temperature), and medium was removed. T cells were washed with 1 ml of ice-cold PBS, and metabolites were extracted with 300 μl of 80% methanol via incubation at −80° C. for 15 min. Samples were centrifuged (17,000×g, 20 min, 4° C.), and supernatants were transferred to an Eppendorf tube and dried in a vacuum evaporator overnight. The dried extracts were resuspended in 20 μl of aqueous 50% methanol, clarified by centrifugation (17,000×g, 20 min, room temperature), and analyzed by LC-HRMS.
LC-HRMS analysis was performed on a Vanquish UPLC coupled with a Q-Exactive HF mass spectrometer, employing the same conditions as the previously established methods 76. A ZIC-pHILIC LC column (4.6 mm inner diameter×150 mm length, […], MilliporeSigma, Burlington, MA) with a ZIC-pHILIC guard column (4.6 mm inner diameter×20 mm length, MilliporeSigma, Burlington, MA) was used for chromatographic separation at a column temperature of 30° C. […]

[6] = CAR T cells isolated after 48 h coculture with imMac with agent (L-NIL 50 μM, supernatants at 36 h; anti-IFN-γ 10 μg/mL, at 24 h)
[7] = CAR T cells and Eμ-myc cells with imMac, agent present (L-NIL 50 μM; anti-IFN-γ 10 μg/mL; c-PTIO)

C=C(CC(=O)OCCCCCCCC)C(=O)O [4-OI, 4-octyl itaconate]
CAR T cell expansion [1]: impaired CAR T cell expansion
CAR T cell expansion ([1]; listed as 4OI): reduced CAR T cell expansion
CAR T cell expansion ([1]; listed as 401): reduced CAR T cell expansion

COC(=O)CCC(=O)C(=O)OC [DMKG]
rescue of CAR T cell expansion by supplementation ([1]; FIG. 15, iNOS in imMac disrupts TCA cycle progression in CAR T cells): failed to rescue CAR T cell expansion

CC(=N)NCCCC[C@H](N)C(=O)O.Cl [L-NIL, N^6-(1-Iminoethyl)-lysine, hydrochloride]
production of citrulline in cocultures with imMac ([2]; coculture supernatants): attenuated
levels of arginine in coculture supernatants ([2]; cocultures with imMac): remained comparable
levels of ornithine in coculture supernatants ([2]; cocultures with imMac): remained comparable
production of effector cytokine IFN-γ by CAR T cells [3, 6]: preserved
production of effector cytokine TNF-α by CAR T cells [3, 6]: preserved
survival of tumor-bearing mice (Eμ-myc B cell tumors): significantly improved survival
CAR T cell expansion in cocultures with imMac [1, 7]: complete rescue of CAR T cell expansion
production of NO in cocultures with imMac (iNOS): attenuated
lysis of Eμ-myc cells by CAR T cells (capacity to kill tumor cells) (Eμ-myc cells; CAR T cells isolated after 48 h initial coculture with Eμ-myc cells and imMac with agent (L-NIL 50 μM; anti-IFN-γ 10 μg/mL)): preserved the capacity of CAR T cells to kill tumor cells
glycolytic metabolic capacity (ECAR) of CAR T cells from cocultures with imMac (CAR T cells [4]): preserved
oxidative metabolic capacity (OCR) of CAR T cells from cocultures with imMac (CAR T cells [4]): preserved
depletion of dihydroxyacetone phosphate (DHAP) in CAR T cells cocultured with imMac (CAR T cells [5]): reversal
depletion of fructose 1,6-bisphosphate (F1,6BP) in CAR T cells cocultured with imMac (CAR T cells [5]): reversal
depletion of glyceraldehyde 3-phosphate (G3P) in CAR T cells cocultured with imMac (CAR T cells [5]): reversal

CC(=O)Oc1ccccc1C(=O)Oc1cccc(CO[N+](=O)[O-])c1 [NCX-4016]
secretion of effector cytokine IFN-γ by CAR T cells [3]: diminished
secretion of effector cytokine TNF-α by CAR T cells [3]: diminished
CAR T cell expansion [1]: inhibition of CAR T cell expansion
lysis of Eμ-myc cells by CAR T cells (ability to kill tumor cells) (Eμ-myc cells): diminished ability of CAR T cells to kill tumor cells

O=NOO [PNT, peroxynitrite]
secretion of effector cytokine IFN-γ by CAR T cells [3]: diminished
secretion of effector cytokine TNF-α by CAR T cells [3]: diminished
CAR T cell expansion [1]: inhibition of CAR T cell expansion
lysis of Eμ-myc cells by CAR T cells (ability to kill tumor cells) (Eμ-myc cells): diminished ability of CAR T cells to kill tumor cells

CC1(C)N([O])C(c2ccc(C(=O)O)cc2)=[N+]([O-])C1(C)C [c-PTIO, carboxyl-PTIO]
CAR T cell expansion in cocultures with imMac [1, 7]: partially rescued the expansion of CAR T cells

NC(=O)NCCC[C@H](N)C(=O)O [citrulline]
CAR T cell expansion [1]: did not impact the expansion of CAR T cells

N=C(NO)NCC[C@H](N)C(=O)O [nor-NOHA, N(omega)-hydroxy-nor-L-arginine]
CAR T cell expansion in cocultures with imMac ([1]; physiological arginine concentration (150 μM), nor-NOHA (50 PM)): failed to rescue CAR T cell expansion
CAR T cell expansion in cocultures with imMac ([1]; supraphysiological arginine concentration (1.15 mM) in culture media, nor-NOHA (50 PM)): did not restore CAR T cell expansion
